Data as given in patent publication US20250230193A1, “CYCLIC COMPOUND HAVING SELECTIVE KRAS INHIBITORY EFFECT ON HRAS AND NRAS” (CHUGAI SEIYAKU KABUSHIKI KAISHA, priority 2022, published 2025).

Legend:
[1] = target: GDP-bound NRAS wild-type protein (Homo sapiens, UniProt P01111); assay: Binding to NRAS by surface plasmon resonance (SPR), Single Cycle Kinetics; settings: KD ratio, GDP-bound NRAS wild-type vs GDP-bound KRAS wild-type, SPR
[2] = target: GDP-bound HRAS wild-type protein (Homo sapiens, UniProt P01112); assay: Binding to HRAS by surface plasmon resonance (SPR), Single Cycle Kinetics; settings: KD ratio, GDP-bound HRAS wild-type vs GDP-bound KRAS wild-type, SPR
Chain of GDP-bound HRAS wild-type protein (P01112 whole entry): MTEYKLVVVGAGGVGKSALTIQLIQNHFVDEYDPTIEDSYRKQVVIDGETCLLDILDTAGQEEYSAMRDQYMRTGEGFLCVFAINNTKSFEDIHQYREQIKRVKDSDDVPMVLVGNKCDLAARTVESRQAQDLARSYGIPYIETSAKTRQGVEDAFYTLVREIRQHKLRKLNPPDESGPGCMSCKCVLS

Chain of GDP-bound NRAS wild-type protein (P01111 whole entry): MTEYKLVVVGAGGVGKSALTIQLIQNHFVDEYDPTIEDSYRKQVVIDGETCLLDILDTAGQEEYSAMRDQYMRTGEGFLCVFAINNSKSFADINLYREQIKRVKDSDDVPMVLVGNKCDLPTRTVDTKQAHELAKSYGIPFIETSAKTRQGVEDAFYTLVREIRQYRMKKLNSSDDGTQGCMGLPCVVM

| SMILES | NRAS/KRAS (ratio of KD value for NRAS to KD value for KRAS) [1] | HRAS/KRAS (ratio of KD value for HRAS to KD value for KRAS) [2] |
| --- | --- | --- |
| CCO[C@@H]1C[C@H]2C(=O)N(C)C3(CCC3)C(=O)N(C)[C@@H](C3CCCC3)C(=O)N(C)[C@H](C(=O)N(C)C)CC(=O)N(C)[C@@H](CC)C(=O)N[C@@H]([C@@H](C)CC)C(=O)N3CCC[C@H]3C(=O)N(C)[C@H]3C/C=C\CCN(C3=O)[C@@H](Cc3ccc(C)cc3)C(=O)N(C)CC(=O)N[C@@H](CCc3cc(F)c(C(F)(F)F)c(F)c3)C(=O)N2C1 [PP1785] | A (a compound having 10 or more and less than 20 is denoted as A) | A (a compound having 10 or more and less than 20 is denoted as A) |
| CC[C@H](C)[C@@H]1NC(=O)[C@H](CC)N(C)C(=O)C[C@@H](C(=O)N(C)C)N(C)C(=O)[C@H](C2CCCC2)N(C)C(=O)C2(CCC2)N(C)C(=O)[C@@H]2CCCN2C(=O)[C@H](CCc2cc(F)c(C(F)(F)F)c(F)c2)NC(=O)CN(C)C(=O)[C@H](Cc2ccc(C)cc2)N2CC/C=C\C[C@@H](C2=O)N(C)C(=O)[C@@H]2CCCN2C1=O [PP1786] | A (a compound having 10 or more and less than 20 is denoted as A) | B (a compound having 3 or more and less than 10 is denoted as B) |
| CC[C@H](C)[C@@H]1NC(=O)[C@H](CC)N(C)C(=O)C[C@@H](C(=O)N(C)C)N(C)C(=O)[C@H](C2CCCC2)N(C)C(=O)C2(CCC2)N(C)C(=O)[C@@H]2C[C@@H](C)CN2C(=O)[C@H](CCc2cc(F)c(C(F)(F)F)c(F)c2)NC(=O)CN(C)C(=O)[C@H](Cc2ccc(C)cc2)N2CC/C=C\C[C@@H](C2=O)N(C)C(=O)CN(C)C1=O [PP1787] | A (a compound having 10 or more and less than 20 is denoted as A) | B (a compound having 3 or more and less than 10 is denoted as B) |
| CC[C@H](C)[C@@H]1NC(=O)[C@H](C2CC2)N(C)C(=O)C[C@@H](C(=O)N(C)C)N(C)C(=O)[C@H](C2CCCC2)N(C)C(=O)C2(CCC2)N(C)C(=O)[C@@H]2C[C@@H](C)CN2C(=O)[C@H](CCc2cc(F)c(C(F)(F)F)c(F)c2)NC(=O)CN(C)C(=O)[C@H](Cc2ccc(C)cc2)N2CC/C=C\C[C@@H](C2=O)N(C)C(=O)CN(C)C1=O [PP1788] | B (a compound having 3 or more and less than 10 is denoted as B) | B (a compound having 3 or more and less than 10 is denoted as B) |
| CC[C@H](C)[C@@H]1NC(=O)[C@H](CC)N(C)C(=O)C[C@@H](C(=O)N(C)C)N(C)C(=O)[C@H](C2CCCC2)N(C)C(=O)C2(CCC2)N(C)C(=O)[C@@H]2C[C@@H](C)CN2C(=O)[C@H](CCc2cc(F)c(C(F)(F)F)c(F)c2)NC(=O)CN(C)C(=O)[C@H](Cc2ccc(C)cc2)N2CC/C=C\C[C@@H](C2=O)N(C)C(=O)[C@@H]2CCCN2C1=O [PP1789] | A (a compound having 10 or more and less than 20 is denoted as A) | A (a compound having 10 or more and less than 20 is denoted as A) |
| CCO[C@@H]1C[C@H]2C(=O)N(C)C3(CCC3)C(=O)N(C)[C@@H](C3CCCC3)C(=O)N(C)[C@H](C(=O)N(C)C)CC(=O)N(C)[C@@H](CC(C)C)C(=O)N[C@@H]([C@@H](C)CC)C(=O)N(C)CC(=O)N(C)[C@H]3C/C=C\CCN(C3=O)[C@@H](Cc3ccc(C)cc3)C(=O)N(C)CC(=O)N[C@@H](CCc3cc(F)c(C(F)(F)F)c(F)c3)C(=O)N2C1 [PP1790] | A (a compound having 10 or more and less than 20 is denoted as A) | B (a compound having 3 or more and less than 10 is denoted as B) |
| CC[C@H](C)[C@@H]1NC(=O)[C@H](CC(C)C)N(C)C(=O)C[C@@H](C(=O)N(C)C)N(C)C(=O)[C@H](C2CCCC2)N(C)C(=O)C2(CCC2)N(C)C(=O)[C@@H]2CCCN2C(=O)[C@H](CCc2cc(F)c(C(F)(F)F)c(F)c2)NC(=O)CN(C)C(=O)[C@H](Cc2ccc(C)cc2)N2CC/C=C\C[C@@H](C2=O)N(C)C(=O)CN(C)C1=O [PP1791] | A (a compound having 10 or more and less than 20 is denoted as A) | A (a compound having 10 or more and less than 20 is denoted as A) |
| CCC[C@H]1C(=O)N[C@@H]([C@@H](C)CC)C(=O)N(C)CC(=O)N(C)[C@H]2C/C=C\CCN(C2=O)[C@@H](Cc2ccc(C)cc2)C(=O)N(C)CC(=O)N[C@@H](CCc2cc(F)c(C(F)(F)F)c(F)c2)C(=O)N2C[C@H](OCC)C[C@H]2C(=O)N(C)C2(CCC2)C(=O)N(C)[C@@H](C2CCCC2)C(=O)N(C)[C@H](C(=O)N(C)C)CC(=O)N1C [PP1793] | A (a compound having 10 or more and less than 20 is denoted as A) | B (a compound having 3 or more and less than 10 is denoted as B) |
| CCC[C@H]1C(=O)N[C@@H]([C@@H](C)CC)C(=O)N(C)CC(=O)N(C)[C@H]2C/C=C\CCN(C2=O)[C@@H](Cc2ccc(C)cc2)C(=O)N(C)CC(=O)N[C@@H](CCc2cc(F)c(C(F)(F)F)c(F)c2)C(=O)N2CCC[C@H]2C(=O)N(C)C2(CCC2)C(=O)N(C)[C@@H](C2CCCC2)C(=O)N(C)[C@H](C(=O)N(C)C)CC(=O)N1C [PP1794] | A (a compound having 10 or more and less than 20 is denoted as A) | B (a compound having 3 or more and less than 10 is denoted as B) |
| CCO[C@@H]1C[C@H]2C(=O)N(C)C3(CCC3)C(=O)N(C)[C@@H](C3CCCC3)C(=O)N(C)[C@H](C(=O)N(C)C)CC(=O)N(C)[C@@H](CC3CC3)C(=O)N[C@@H]([C@@H](C)CC)C(=O)N(C)CC(=O)N(C)[C@H]3C/C=C\CCN(C3=O)[C@@H](Cc3ccc(C)cc3)C(=O)N(C)CC(=O)N[C@@H](CCc3cc(F)c(C(F)(F)F)c(F)c3)C(=O)N2C1 [PP1795] | A (a compound having 10 or more and less than 20 is denoted as A) | B (a compound having 3 or more and less than 10 is denoted as B) |
| CC[C@H](C)[C@@H]1NC(=O)[C@H](CC2CC2)N(C)C(=O)C[C@@H](C(=O)N(C)C)N(C)C(=O)[C@H](C2CCCC2)N(C)C(=O)C2(CCC2)N(C)C(=O)[C@@H]2CCCN2C(=O)[C@H](CCc2cc(F)c(C(F)(F)F)c(F)c2)NC(=O)CN(C)C(=O)[C@H](Cc2ccc(C)cc2)N2CC/C=C\C[C@@H](C2=O)N(C)C(=O)CN(C)C1=O [PP1796] | A (a compound having 10 or more and less than 20 is denoted as A) | B (a compound having 3 or more and less than 10 is denoted as B) |
| CCO[C@@H]1C[C@H]2C(=O)N(C)C3(CCC3)C(=O)N(C)[C@@H](C3CCCC3)C(=O)N(C)[C@H](C(=O)N(C)C)CC(=O)N(C)[C@@H](CC3CC3)C(=O)N[C@@H]([C@@H](C)CC)C(=O)N3CCC[C@H]3C(=O)N(C)[C@H]3C/C=C\CCN(C3=O)[C@@H](Cc3ccc(C)cc3)C(=O)N(C)CC(=O)N[C@@H](CCc3cc(F)c(C(F)(F)F)c(F)c3)C(=O)N2C1 [PP1797] | A (a compound having 10 or more and less than 20 is denoted as A) | A (a compound having 10 or more and less than 20 is denoted as A) |
| CC[C@H](C)[C@@H]1NC(=O)[C@H](CC2CC2)N(C)C(=O)C[C@@H](C(=O)N(C)C)N(C)C(=O)[C@H](C2CCCC2)N(C)C(=O)C2(CCC2)N(C)C(=O)[C@@H]2CCCN2C(=O)[C@H](CCc2cc(F)c(C(F)(F)F)c(F)c2)NC(=O)CN(C)C(=O)[C@H](Cc2ccc(C)cc2)N2CC/C=C\C[C@@H](C2=O)N(C)C(=O)[C@@H]2CCCN2C1=O [PP1798] | A (a compound having 10 or more and less than 20 is denoted as A) | B (a compound having 3 or more and less than 10 is denoted as B) |
| CCC[C@H]1C(=O)N[C@@H]([C@@H](C)CC)C(=O)N(C)CC(=O)N(C)[C@H]2C/C=C\CCN(C2=O)[C@@H](Cc2ccc(C)cc2)C(=O)N(C)CC(=O)N[C@@H](CCc2cc(F)c(C(F)(F)F)c(F)c2)C(=O)N2C[C@H](C)C[C@H]2C(=O)N(C)C2(CCC2)C(=O)N(C)[C@@H](C2CCCC2)C(=O)N(C)[C@H](C(=O)N(C)C)CC(=O)N1C [PP1799] | B (a compound having 3 or more and less than 10 is denoted as B) | B (a compound having 3 or more and less than 10 is denoted as B) |
| CC[C@H](C)[C@@H]1NC(=O)[C@H](CC2CC2)N(C)C(=O)C[C@@H](C(=O)N(C)C)N(C)C(=O)[C@H](C2CCCC2)N(C)C(=O)C2(CCC2)N(C)C(=O)[C@@H]2C[C@@H](C)CN2C(=O)[C@H](CCc2cc(F)c(C(F)(F)F)c(F)c2)NC(=O)CN(C)C(=O)[C@H](Cc2ccc(C)cc2)N2CC/C=C\C[C@@H](C2=O)N(C)C(=O)CN(C)C1=O [PP1800] | A (a compound having 10 or more and less than 20 is denoted as A) | A (a compound having 10 or more and less than 20 is denoted as A) |
| CC[C@H](C)[C@@H]1NC(=O)[C@H](CC2CC2)N(C)C(=O)C[C@@H](C(=O)N(C)C)N(C)C(=O)[C@H](C2CCCC2)N(C)C(=O)C2(CCC2)N(C)C(=O)[C@@H]2C[C@@H](C)CN2C(=O)[C@H](CCc2cc(F)c(C(F)(F)F)c(F)c2)NC(=O)CN(C)C(=O)[C@H](Cc2ccc(C)cc2)N2CC/C=C\C[C@@H](C2=O)N(C)C(=O)[C@@H]2CCCN2C1=O [PP1801] | A (a compound having 10 or more and less than 20 is denoted as A) | B (a compound having 3 or more and less than 10 is denoted as B) |
| CC[C@H](C)[C@@H]1NC(=O)[C@H](CC2CCC2)N(C)C(=O)C[C@@H](C(=O)N(C)C)N(C)C(=O)[C@H](C2CCCC2)N(C)C(=O)C2(CCC2)N(C)C(=O)[C@@H]2CCCN2C(=O)[C@H](CCc2cc(F)c(C(F)(F)F)c(F)c2)NC(=O)CN(C)C(=O)[C@H](Cc2ccc(C)cc2)N2CC/C=C\C[C@@H](C2=O)N(C)C(=O)CN(C)C1=O [PP1802] | A (a compound having 10 or more and less than 20 is denoted as A) | B (a compound having 3 or more and less than 10 is denoted as B) |
